The data set addresses ATP-binding cassette sub-family C member 2 (Homo sapiens, UniProt Q92887). Put plainly: TP_TRANSPORTER: Immunoblot analysis in Caco-2 cells. It is filed as functional, cell-based. In general terms: Immunoblotting shows a protein as a band on a membrane.

Chain of ATP-binding cassette sub-family C member 2 (Q92887 whole entry): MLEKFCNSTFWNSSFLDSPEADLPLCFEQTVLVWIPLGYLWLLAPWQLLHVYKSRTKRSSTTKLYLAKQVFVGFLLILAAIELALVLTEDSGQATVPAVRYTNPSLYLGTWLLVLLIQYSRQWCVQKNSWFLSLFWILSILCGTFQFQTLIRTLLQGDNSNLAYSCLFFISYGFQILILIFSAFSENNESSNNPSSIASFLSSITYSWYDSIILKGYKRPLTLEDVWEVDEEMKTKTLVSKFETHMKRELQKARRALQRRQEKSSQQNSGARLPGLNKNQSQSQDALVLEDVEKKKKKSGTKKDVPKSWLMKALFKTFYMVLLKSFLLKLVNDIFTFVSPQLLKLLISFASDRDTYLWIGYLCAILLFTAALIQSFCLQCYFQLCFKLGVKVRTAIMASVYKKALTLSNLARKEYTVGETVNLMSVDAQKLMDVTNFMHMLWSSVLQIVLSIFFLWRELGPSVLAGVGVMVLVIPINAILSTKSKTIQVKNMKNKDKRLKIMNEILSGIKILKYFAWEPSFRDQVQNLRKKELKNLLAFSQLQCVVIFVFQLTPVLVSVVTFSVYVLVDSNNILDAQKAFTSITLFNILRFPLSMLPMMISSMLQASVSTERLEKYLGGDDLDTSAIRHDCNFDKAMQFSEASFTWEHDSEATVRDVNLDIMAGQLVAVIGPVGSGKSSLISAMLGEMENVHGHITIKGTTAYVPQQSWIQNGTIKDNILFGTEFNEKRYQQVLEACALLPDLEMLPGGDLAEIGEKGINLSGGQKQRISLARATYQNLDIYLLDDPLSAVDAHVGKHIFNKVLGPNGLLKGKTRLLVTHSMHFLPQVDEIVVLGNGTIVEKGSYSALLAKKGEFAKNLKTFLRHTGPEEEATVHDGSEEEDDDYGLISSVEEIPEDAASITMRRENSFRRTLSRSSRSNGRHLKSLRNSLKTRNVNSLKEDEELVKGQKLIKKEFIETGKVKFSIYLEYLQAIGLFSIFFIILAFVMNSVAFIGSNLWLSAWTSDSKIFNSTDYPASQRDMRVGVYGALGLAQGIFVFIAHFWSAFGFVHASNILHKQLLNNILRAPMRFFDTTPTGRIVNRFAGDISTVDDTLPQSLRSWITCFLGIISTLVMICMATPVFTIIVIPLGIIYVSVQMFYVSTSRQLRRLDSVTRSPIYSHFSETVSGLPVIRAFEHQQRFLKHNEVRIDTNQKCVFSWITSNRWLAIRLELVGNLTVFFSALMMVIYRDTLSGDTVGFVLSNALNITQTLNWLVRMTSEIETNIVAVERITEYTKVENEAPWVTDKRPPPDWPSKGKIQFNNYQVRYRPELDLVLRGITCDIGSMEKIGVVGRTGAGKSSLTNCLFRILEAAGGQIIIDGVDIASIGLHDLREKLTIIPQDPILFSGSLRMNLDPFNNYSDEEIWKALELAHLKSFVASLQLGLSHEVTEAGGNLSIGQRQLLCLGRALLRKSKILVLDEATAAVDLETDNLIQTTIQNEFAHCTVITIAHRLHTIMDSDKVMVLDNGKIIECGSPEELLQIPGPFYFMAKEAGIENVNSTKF

Take `O=c1c(O)c(-c2ccc(O)c(O)c2)oc2cc(O)cc(O)c12` [QUERCETIN]: the Activity entry is “inducer [+]”.
